# Data reported in ChEMBL document CHEMBL1150671, “Online analysis of xestodecalactones A-C, novel bioactive metabolites from the fungus Penicillium cf. montanense and their subsequent isolation from the sponge Xestospongia exigua” (2002).
# The source made the active and inactive calls. The rule behind the calls is not given here.
# What was measured:
# Bacillus subtilis = experiment: Antibacterial activity against Bacillus subtilis 168; type: functional, organism-based; conditions: subsp. subtilis str. 168
# Staphylococcus aureus = experiment: Antibacterial activity against Staphylococcus aureus ATCC 25923; type: functional, organism-based
# Escherichia coli [1] = experiment: Antibacterial activity against Escherichia coli ATCC 25922; type: functional, organism-based
# Escherichia coli [2] = experiment: Antibacterial activity against Escherichia coli HB 101; type: functional, organism-based
# Candida albicans [3] = experiment: Antifungal activity against Candida albicans at 50 umol by agar diffusion assay; type: functional
# Candida albicans [4] = experiment: Antifungal activity against Candida albicans at 20 umol by agar diffusion assay; type: functional
# Candida albicans [5] = experiment: Antifungal activity against Candida albicans at 100 umol by agar diffusion assay; type: functional
SMILES,Activity (Bacillus subtilis),Activity (Staphylococcus aureus),Activity (Escherichia coli [1]),Activity (Escherichia coli [2]),inhibition zone (IZ) (Candida albicans [3]) [mm],inhibition zone (IZ) (Candida albicans [4]) [mm],inhibition zone (IZ) (Candida albicans [5]) [mm]
C[C@@H]1CCCC(=O)C[C@@H](O)CC(=O)O1,inactive,inactive,inactive,inactive,–,–,–
C[C@H]1CCC[C@@H](O)CC(=O)c2c(O)cc(O)cc2CC(=O)O1,inactive,inactive,inactive,inactive,–,–,–
C[C@@H]1C[C@H](O)CC(=O)c2c(O)cc(O)cc2CC(=O)O1 [XESTODECALACTONE B],inactive,inactive,inactive,inactive,12,7,25
C[C@@H]1C[C@H](O)CCCC(=O)CC(=O)O1,inactive,inactive,inactive,inactive,–,–,–
C[C@H]1C[C@H](O)CC(=O)c2c(O)cc(O)cc2CC(=O)O1,inactive,inactive,inactive,inactive,–,–,–
C[C@H]1CCC[C@H](O)CC(=O)c2c(O)cc(O)cc2CC(=O)O1,inactive,inactive,inactive,inactive,–,–,–
C[C@H]1CCCCCC(=O)c2c(O)cc(O)cc2CC(=O)O1,inactive,inactive,inactive,inactive,–,–,–
CC1C/C=C/C(=O)c2c(O)cc(O)cc2CC(=O)O1 (centres undefined),inactive,inactive,inactive,inactive,–,–,–
C[C@@H]1CCCC(=O)c2c(O)cc(O)cc2CC(=O)O1,inactive,inactive,inactive,inactive,–,–,–
